Assay results taken from patent publication EP0973746B1, “SUBSTITUTED 3-CYANO QUINOLINES” (Wyeth Holdings Corporation, priority 1997, dated 1998).
Converted amounts (≈) assume the structure as drawn. “And” between values parts separate entries of the source, which are not always exact repeats. Equal entries are not always repeated. Where two headings read alike, the source gives them in different places.

Assays:
SW620 = test: Inhibition of cancer cell growth as measured by cell number, SW620; assay type: cell-based, human; settings: for IC50: Homo sapiens, SW-620, 48 h;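 as to all read-outs here: SW620 was included as a cell line with little or no EGFR or HER2/neu expression, in contrast to receptor-overexpressing lines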
Excerpt: (§1) The cell lines were chosen since they overexpressed epidermal growth factor receptor (EGFR) (i.e. A431) or HER2/neu (SKBR3), or had little to no expression of the these receptors (SW620, LOX, MCF7).

MCF7 = test: Inhibition of cancer cell growth as measured by cell number, MCF7; assay type: cell-based, human; settings: Table 8; for IC50: Homo sapiens, MCF7, 48 h, read-out: IC50 MCF7, cell number, Sulforhodamine B, 48 hours exposure;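 as to all read-outs here: MCF7 was included as a line with little or no EGFR or HER2/neu expression, in contrast to the receptor-overexpressing lines of the panel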
Excerpt: as §1

SKBR3 = test: Inhibition of cancer cell growth as measured by cell number, SKBR3; assay type: cell-based, human; settings: for IC50: Homo sapiens;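 as to all read-outs here: SK-BR-3 cells were selected as a line overexpressing HER2/neu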
Excerpt: as §1

[1] = target: T1, His-tagged cytoplasmic domain of EGFR (Homo sapiens, UniProt P00533); test: Inhibition of Epidermal Growth Factor Receptor Kinase (EGF-R) using recombinant enzyme; assay type: biochemical;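 also: radiometric kinase assay measuring radiolabeled phosphate transfer from ATP onto the peptide tyrosine by scintillation counting, control is reaction without compound, background subtracted, IC50 from dose-response curve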
T1 construct: containing the EGFR cDNA encoding amino acids 645 - 1186 preceded by Met-Ala-(His)6; made in house; host or cells: Sf9 cells, recombinant baculovirus vHcEGFR52
T1 sequence (P00533 669-1210): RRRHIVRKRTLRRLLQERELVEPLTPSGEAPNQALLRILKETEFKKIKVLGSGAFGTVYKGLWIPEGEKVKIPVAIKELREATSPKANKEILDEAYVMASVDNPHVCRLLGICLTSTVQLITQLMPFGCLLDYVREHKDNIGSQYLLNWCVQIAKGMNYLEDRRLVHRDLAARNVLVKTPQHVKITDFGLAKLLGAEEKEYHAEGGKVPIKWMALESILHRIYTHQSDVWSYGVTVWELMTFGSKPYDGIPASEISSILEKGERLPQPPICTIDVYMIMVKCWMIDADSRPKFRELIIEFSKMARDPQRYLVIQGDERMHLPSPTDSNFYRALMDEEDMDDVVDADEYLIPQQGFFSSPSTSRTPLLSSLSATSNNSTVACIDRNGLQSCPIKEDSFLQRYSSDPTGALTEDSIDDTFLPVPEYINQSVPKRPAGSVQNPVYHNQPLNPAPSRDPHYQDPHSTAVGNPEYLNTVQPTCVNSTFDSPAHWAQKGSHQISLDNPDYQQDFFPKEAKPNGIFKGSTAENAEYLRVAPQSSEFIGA

A431 = test: Inhibition of cancer cell growth as measured by cell number, A431; assay type: cell-based, human; settings: for IC50: Homo sapiens, A-431, 48 h;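 as to all read-outs here: human A431 line, picked because it overexpresses epidermal growth factor receptor (EGFR)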
Excerpt: as §1

[2] = target: recombinant human MEK 1 (MAPKK) and recombinant human ERK2 (MAPK); test: Mitogen Activated Protein Kinase (MAPK) assay, two component coupled MEK 1 / ERK2; assay type: biochemical; settings: separate entries for the same compound = evaluated more than one time;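 also: MEK 1-activated ERK2 phosphorylates MBP or Myc peptide with 33P-ATP, filter capture and scintillation counting, inhibitor preincubated with ERK2 30 min at 0 °C, inhibition relative to uninhibited control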
LOX = test: Inhibition of cancer cell growth as measured by cell number, LOX; assay type: cell-based, human; settings: Homo sapiens, LOX, 48 h, read-out: IC50 LOX, cell number, Sulforhodamine B, 48 hours exposure; Table 8;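 also: LOX cells served as a line with low or absent EGFR and HER2/neu expression, in contrast to receptor-overexpressing lines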
Excerpt: as §1

[3] = read-out: IC50 SW620, cell number, Sulforhodamine B, 48 hours exposure, Table 8
[4] = SK-BR-3, 48 h, read-out: IC50 SKBR3, cell number, Sulforhodamine B, 48 hours exposure, Table 8
[5] = recombinant enzyme, RR-SRC peptide, average of the number of tests, read-out: IC50
[6] = cell number, Sulforhodamine B, 48 hours exposure, Table 8, read-out: IC50 SW620
[7] = cell number, Sulforhodamine B, 48 hours exposure, Table 8, read-out: IC50 A431
[8] = SK-BR-3, cell number, Sulforhodamine B, 48 hours exposure, Table 8, read-out: IC50 SKBR3
[9] = read-out: IC50 A431, cell number, Sulforhodamine B, 48 hours exposure, Table 8
[10] = cell number, Sulforhodamine B, 48 hours exposure, Table 8

SMILES	IC50 (SW620; [3]) [µg/mL]	IC50 (SKBR3; [4]) [µg/mL]	IC50 [1, 5] [nM]	IC50 (SW620; [6]) [µg/mL]	IC50 (A431; [7]) [µg/mL]	IC50 (SKBR3; [8]) [µg/mL]	IC50 [2]	IC50 (A431; [9]) [µg/mL]	other results
COc1cc2ncc(C#N)c(Nc3cccc(F)c3)c2cc1OC [Example 35, 4-[(3-Fluorophenyl)amino]-6,7-dimethoxy-3-quinolinecarbonitrile]	6.4 (≈ 19.8 µM)	0.93 (≈ 2.88 µM)							IC50 (SW620; read-out: IC50 SW620, cell number, Sulforhodamine B, 48 hours exposure, Table 4): 9.57 µg/mL (≈ 29.6 µM); IC50 (MCF7): 40.9 µg/mL (≈ 126 µM)
CCOc1cc2ncc(C#N)c(NCc3ccc(OC)c(OC)c3)c2cc1OCC [Example 63, 4-(3,4-Dimethoxyphenylmethylamino)-6,7-diethoxy-3-quinolinecarbonitrile]			≥ 10000	0.208 (≈ 0.51 µM)	0.095 (≈ 0.233 µM)	0.144 (≈ 0.353 µM)	> 100000 nM		
CNCC=CC(=O)Nc1ccc2ncc(C#N)c(Nc3cccc(Br)c3)c2c1 [Example 101, 4-Methylamino-but-2-enoic acid [4-(3-bromophenylamino)-3-cyano-quinolin-6-yl]-amide]			100	> 10	> 10	> 10	20000 nM		
CC#CC(=O)Nc1cc(CN(C)C)c2ncc(C#N)c(Nc3cccc(Br)c3)c2c1 [Example 110, N-{4-[(3-Bromophenyl)amino]-3-cyano-8-dimethylaminomethyl-6-quinolinyl} -2-butynamide]	0.7 (≈ 1.51 µM)	1.3 (≈ 2.81 µM)					40000 nM	0.9 (≈ 1.95 µM)	IC50 (LOX): 0.8 µg/mL (≈ 1.73 µM)
COc1cccc(Nc2c(C#N)cnc3ccc(NC(=O)C#CCN4CCCCC4)cc23)c1 [Example 140, N-{3-cyano-4-[(3-methoxyphenyl)amino]-6-quinolinyl}-4-piperidino-2-butynamide]	0.1 (≈ 0.228 µM)	0.02 (≈ 0.0455 µM)	0.6				> 100000 nM	0.02 (≈ 0.0455 µM)	
CCN(CC)CC=CC(=O)Nc1ccc2ncc(C#N)c(Nc3ccc(F)c(Cl)c3)c2c1 [Example 146, N-{4-[(3-Chloro-4-fluorophenyl)amino]-3-cyano-6-quinoliny}-4-diethylamino-2-butenamide]			30	0.6 (≈ 1.33 µM)	0.03 (≈ 0.0664 µM)	0.03 (≈ 0.0664 µM)	6000 nM		
CC#CC(=O)Nc1ccc2ncc(C#N)c(Nc3ccc(Sc4ccccc4)c(Cl)c3)c2c1 [Example 157]	4.17 (≈ 8.89 µM)	2.6 (≈ 5.55 µM)	45				90000 nM	3.26 (≈ 6.95 µM)	
C=CC(=O)Nc1ccc2ncc(C#N)c(Nc3cccc(C#N)c3)c2c1 [Example 160, N-[3-Cyano-4-[(3-cyanophenyl)amino]-6-quinolinyl}-2-propenamide]	2.3 (≈ 6.78 µM)	0.5 (≈ 1.47 µM)	2				30000 nM	0.2 (≈ 0.589 µM)	
N#Cc1cccc(Nc2c(C#N)cnc3ccc(NC(=O)C#CCN4CCCCC4)cc23)c1 [Example 161, N-{3-Cyano-4-[(3-cyanophenyl)amino]-6-quinolinyl}-4-piperidino-2-butynamide]	0.2 (≈ 0.46 µM)	0.04 (≈ 0.0921 µM)	0.35				55000 nM	0.1 (≈ 0.23 µM)	
C#Cc1cccc(Nc2c(C#N)cnc3ccc(NC(=O)C#CCN4CCCCC4)cc23)c1 [Example 166, N-{3-cyano-4-[(3-ethynylphenyl)amino]-6-quinolinyl)-4-piperidino-2-butynamide]	0.04 (≈ 0.0923 µM)	0.02 (≈ 0.0461 µM)	20				> 100000 nM	0.02 (≈ 0.0461 µM)	
CCCN(CC#CC(=O)Nc1ccc2ncc(C#N)c(Nc3cccc(Br)c3)c2c1)CCC [Example 170]			60				> 100000 nM		IC50 SW620 (SW620): 0.1 µg/mL (≈ 0.198 µM); IC50 A431 (A431): 0.03 µg/mL (≈ 0.0595 µM); IC50 SKBR3 (SKBR3): 0.03 µg/mL (≈ 0.0595 µM)
CN(C)CC=CC(=O)Nc1ccc2ncc(C#N)c(Nc3ccc(F)c(Br)c3)c2c1 [Example 172, N-{4-[(3-Bromo-4-fluorophenyl)amino]-3-cyano-6-quinolinyl} -4-dimethylamino-2-butenamide]			5	1.59 (≈ 3.4 µM)	0.255 (≈ 0.544 µM)	0.067 (≈ 0.143 µM)	90000 nM		
CCN1CCN(CC#CC(=O)Nc2ccc3ncc(C#N)c(Nc4cccc(Br)c4)c3c2)CC1 [Example 188, N-[4-[(3-Bromophenyl)amino]-3-cyano-6-quinolinyl]-4-(N-ethylpiperazino)-2-butynamide]			1					0.54 (≈ 1.04 µM)	IC50 (MCF7): 1.43 µg/mL (≈ 2.76 µM); IC50 MCF7 (MCF7; cell number, Sulforhodamine B, 48 hours exposure): 0.8 µg/mL (≈ 1.55 µM); IC50 A431 (A431; [10]): 0.4 µg/mL and 0.579 µg/mL
CCN(CC)CC#CC(=O)Nc1ccc2ncc(C#N)c(Nc3ccc(F)c(Cl)c3)c2c1 [Example 189, N-[4-[(3-Chloro-4-fluorophenyl)amino]-3-cyano-6-quinolinyl]-4-diethylamino-2-butynamide]	0.1 (≈ 0.222 µM)	0.03 (≈ 0.0667 µM)	2				50000 nM	0.04 (≈ 0.0889 µM)	
COCC#CC(=O)Nc1ccc2ncc(C#N)c(Nc3ccc(F)c(Cl)c3)c2c1 [Example 194, N-[4-[-(3-Chloro-4-fluorophenyl)amino]-3-cyano-6-quinolinyl]-4-methoxy-2-butynamide]	0.2 (≈ 0.489 µM)	0.2 (≈ 0.489 µM)	1.7				> 100000 nM	0.1 (≈ 0.245 µM)	
COc1cc2ncc(C#N)c(Nc3cccc(Br)c3)c2cc1NC(=O)C=CCN(C)C [Example 198, 4-Dimethylamino-but-2-enoic acid [4-(3-brom-phenylamino)-3-cyano-7-methoxy-quinolin-6yl]-amide]									IC50 [1]: 0.008 nM; IC50 SW620 (SW620; [10]): 0.4 µg/mL (≈ 0.833 µM); IC50 A431 (A431; [10]): 0.002 µg/mL (≈ 0.00416 µM); IC50 SKBR3 (SKBR3; [10]): 0.03 µg/mL (≈ 0.0625 µM)
CCN(CC)CC=CC(=O)Nc1cc2c(Nc3cccc(Br)c3)c(C#N)cnc2cc1OC [Example 199, 4-Diethylamino-but-2-enoic acid [4-(3-bromo-phenylamino)-3-cyano-7-methoxy-quinolin-6-yl]-amide]			0.5	0.433 (≈ 0.852 µM)	0.048 (≈ 0.0944 µM)	0.076 (≈ 0.149 µM)			
CCN(CC)CC=CC(=O)Nc1cc2c(Nc3ccc(F)c(Br)c3)c(C#N)cnc2cc1OC [Example 209, 4-Diethylamino-but-2-enoic acid [4-(3-bromo-4-fluorophenylamino)-3-cyano-7-methoxy-quinolin-6-yl]-amide]	0.38 (≈ 0.722 µM)	0.048 (≈ 0.0912 µM)	5				9000 nM	0.113 (≈ 0.215 µM)	
COc1cc2ncc(C#N)c(Nc3cccc(Br)c3)c2cc1NC(=O)C#CCN(C)C [Example 227, 4-Dimethylamino-but-2-ynoic acid [4-(3-bromo-phenylamino)-3-cyano-7-methoxy-quinol-6-yl]-amide]	0.1 (≈ 0.209 µM)	0.2 (≈ 0.418 µM)	10					0.02 (≈ 0.0418 µM)	
COCCOc1cc2ncc(C#N)c(Nc3cccc(Br)c3)c2cc1OCCOC [Example 311, 4-[(3-Bromophenyl)amino]-6,7-bis(2-methoxyethoxy)-3-quinolinecarbonitrile]	1 (≈ 2.12 µM)	0.7 (≈ 1.48 µM)					2000 nM and 2500 nM		IC50 (LOX): 2.8 µg/mL (≈ 5.93 µM)
COc1cc2c(Nc3ccc(O)cc3C)c(C#N)cnc2cc1OCCCN1CCOCC1 [Example 312, 4-(4-Hydroxy-2-methyl-phenylamino)-6-methoxy-7-(3-morpholin-4-yl-propoxy)-quinoline-3-carbonitrile]			50	3.53 (≈ 7.88 µM)	0.491 (≈ 1.09 µM)	2.25 (≈ 5.03 µM)	> 100000 nM		
COc1cc2ncc(C#N)c(Nc3cccc(Br)c3)c2cc1NC(=O)C=CCCl [Example 347, N-{4-[(3-Bromophenyl)amino]-3-cyano-7-methoxy-6-quinolinyl} -4-chloro-2-butenamide]			40	0.2 (≈ 0.424 µM)	0.04 (≈ 0.0848 µM)	0.2 (≈ 0.424 µM)			
